Tests used:
5α-reductase = target: T1, 5α-reductase (Rattus norvegicus, UniProt P24008); test: 5α-reductase enzyme activity inhibition (rat liver homogenate, testosterone quantified by HPLC); type: biochemical; settings: treated at 125 μg/ml, 250 μg/ml, or 500 μg/ml; 37° C., 30 minutes; FIGS. 7A and 7B
T1 construct: After centrifuging the homogenate at 10,000 xg for 10 minutes, the supernatant was […] to prepare an enzyme solution; from tissue; host or cells: liver of 7-week-old male SD rat (10,000 x g supernatant of homogenate)
T1 sequence (P24008 1-259): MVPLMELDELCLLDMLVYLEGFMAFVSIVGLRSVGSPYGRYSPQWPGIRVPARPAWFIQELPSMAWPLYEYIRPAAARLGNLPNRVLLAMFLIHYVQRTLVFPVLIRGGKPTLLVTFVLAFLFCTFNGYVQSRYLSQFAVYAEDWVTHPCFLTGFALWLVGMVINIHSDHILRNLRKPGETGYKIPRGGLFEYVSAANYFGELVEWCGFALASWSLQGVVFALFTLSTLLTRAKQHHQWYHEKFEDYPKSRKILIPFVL
Procedure: 5α-reductase reduces testosterone to produce dihydrotestosterone (DHT). After reacting rat liver homogenate with testosterone, the ability to inhibit 5α-reductase enzyme activity was measured using a method of quantify testosterone.
First, a 7-week-old male SD rat was prepared and anesthetized using ethyl ether. After SD rats were laparotomised, the hepatic portal vein thereof was nicked, and cold STM buffer (270 mM sucrose, 10 mM Tris-HCl, pH7.5, 1 mM MgCl2, G-biosciences, USA) was injected into the left ventricle using a syringe. The injection was continued until the STM buffer was perfused into the liver and the color of the liver changed from dark red to light pink. Afterwards, the liver was removed, transferred to a beaker, cut with scissors, and homogenized after adding STM buffer in an amount three times that of the liver. After centrifuging the homogenate at 10,000 xg for 10 minutes, the supernatant was […] to prepare an enzyme solution. […] The dichloromethane layer was separated, concentrated, dissolved in 50% methanol, and quantified using high-performance chromatography. The 5α-reductase inhibition ability was calculated using the formula: 5α-reductase inhibition ability (%)=[1−(area value of sample-area value of blank sample)/(area value of test group-area value of blank sample)]×100.

[1] = test system: human follicle dermal papilla cells (HFDPC); test: Cytotoxicity in dermal papilla cells (MTT assay); type: cell-based; settings: 24 hours
Procedure: It was confirmed whether the Hydrangea serrata extract and hydrangenol obtained according to Examples 1 and 2 were cytotoxic to human follicle dermal papilla cells (HFDPC).
HFDPC cells were cultured in follicle dermal papilla cell growth medium including supplement mix (5% fetal calf serum, 0.5% bovine pituitary extract, 0.5 μg basic fibroblast growth factor, and 2.5 mg insulin) and 1% antibiotic antimycotic solution. HDFPC cell lines were seeded into a 96-well plate at a concentration of 1.0×10^4 cells/well and incubated in a CO2 incubator conditioned at 37° C., 95% humidity, and 5% CO2 for 24 hours. Subsequently, the medium was replaced with medium without supplement mix and was treated with samples of each concentration and after 24 hours of incubation, cell viability was measured by MTT assay. The MTT assay is a method to measure the amount of formazan formed from MTT reduced by the mitochondria of living cells. More specifically, 100 μl of 0.5 mg/mL MTT solution was applied to each cell and incubated for 4 hours. Then, the solution was completely removed and the absorbance of the plate dissolved in DMSO was measured at 540 nm.

HFDPC cell lines = test: Cell proliferation in dermal papilla cells (MTT assay); type: cell-based, human; settings: treated for 3 and 6 days, 25 μg/ml and 50 μg/ml
Procedure: Based on the results of the dermal papilla cell toxicity test confirmed above, the cell proliferation effect of the Hydrangea serrata extract and hydrangenol obtained in Examples 1 and 2 was confirmed. HFDPC cell lines were seeded into a 96-well plate at a concentration of 1.0×10^3 cells/well and incubated in a CO2 incubator conditioned at 37° C., 95% humidity, and 5% CO2 for 24 hours. Subsequently, after treatment with samples at each concentration, cell proliferation was measured by MTT assay after 1, 3, and 6 days of incubation. More specifically, after treatment with samples of each concentration, the incubation was proceeded for 24, 72, and 144 hours, and then each cell was treated with 100 μl of 0.5 mg/ml MTT solution, and after 4 hours, the solution was completely removed and the plates dissolved in DMSO were measured at an absorbance of […].

`O=C1OC(c2ccc(O)cc2)Cc2cccc(O)c21` (stereo not shown) [hydrangenol, 8-hydroxy-3-(4-hydroxyphenyl)-3,4-dihydroisochromen-1-one] was tested, and the 5α-reductase inhibitory activity (5α-reductase) was 5α-reductase inhibitory activity in a concentration-dependent manner, the “cytotoxicity (cell viability by MTT)” value ([1]; 1.56, 3.12, 6.25, 12.5, 25, 50 and 100 μg/ml) was “no cytotoxicity was shown at all concentrations” and the cell growth ([1]; concentrations of 3.12 μg/ml to 100 μg/ml) was “significantly increase cell growth”. The “cell growth (cell proliferation by MTT)” value (HFDPC cell lines) was “cell growth was significantly increased”.

From patent US20250090439A1, “COMPOSITION COMPRISING HYDRANGENOL AS ACTIVE INGREDIENT FOR IMPROVING HAIR OR SCALP CONDITION” (COSMAX BIO CO., LTD., priority 2021, published 2025)
